# Experiments:
# [1] = system: rats subjected to volume-controlled hemorrhagic shock; test: Survival of rats subjected to volume-controlled hemorrhagic shock; type: in vivo, rat
# Source text: Surgical procedures to obtain vascular access. All study protocols using rats followed the guidelines for the use of experimental animals of the US National Institutes of Health and were approved by the Institutional Animal Care and Use Committee at the University of Pittsburgh.
# Male specific pathogen-free Sprague Dawley rats (CHARLES RIVER LABORATORIES, Wilmington, Mass.), weighing 150-250 g, were housed in a temperature-controlled environment with a 12-h light/dark cycle. The rats had free access to food and water. For experiments, rats were anesthetized with intramuscular ketamine HCl (30 mg/kg) and intraperitoneal sodium pentobarbital (35 mg/kg). Animals were kept in a supine position during the experiments. Lidocaine (0.5 ml of a 0.5% solution) was injected subcutaneously to provide local anesthesia at surgical cut-down sites. In order to secure the airway, a tracheotomy was performed and polyethylene tubing (PE 240; BECTON-DICKINSON, Sparks, Md.) was introduced into the trachea. Animals were allowed to breathe spontaneously.
# The right femoral artery was cannulated with polyethylene tubing (PE 10). This catheter was attached to a pressure transducer that allowed instantaneous measurement of mean arterial pressure (MAP) during the experiment. For experiments using the pressure-controlled hemorrhagic shock (HS) model, the right jugular vein was exposed, ligated distally, and cannulated with polyethylene tubing (PE 10) in order to withdraw blood. For experiments using the volume-controlled hemorrhagic shock (HS) model, the jugular catheter was used to infuse the resuscitation solution and the right femoral vein, which was cannulated with a silicon catheter (CHRONIC-CATH, NORFOLK MEDICAL, Skokie, Ill.), was used to withdraw blood.
# All animals were instrumented within 30 min. Heparin (500 U/kg) was administered immediately after instrumentation through the femoral vein. Animals were placed in a thermal blanket to maintain their body temperature at 37° C. The positioning of the different devices aforementioned was checked postmortem.
# Survival of rats subjected to volume-controlled hemorrhagic shock. Following surgical preparation and a 5-min stabilization period to obtain baseline readings, rats were subjected to hemorrhagic shock. Bleeding was carried out in 2 phases.
# Initially, 21 ml/kg of blood was withdrawn over 20 min. Immediately thereafter, an additional 12.5 ml/kg of blood was withdrawn over 40 min. […]
# Blood pressure was recorded continuously using a commercial strain-gauge transducer, amplifier, and monitor (S90603a, SPACELABS, Redmond, Wash.). […] Hemoglobin concentration [Hb], lactate and glucose concentration were determined using an auto-analyzer (Model ABL 725, […], Westlake, Ohio). […]
# [2] = system: MECs; test: ActD-induced apoptosis in MECs (PS externalization, caspase-3 activation, DNA fragmentation); type: cell-based, mouse
# Source text: Cells that annexin V-positive and PI-negative were considered apoptotic.
# [3] = system: phospholipids in intestinal mucosa; test: Assay for peroxidation of phospholipids in gut mucosa after hemorrhagic shock; type: in vivo, rat; settings: intraluminal 10 μM, 2 h HS
# Procedure: After 2 h of shock, the animals were euthanized with an intracardiac KCl bolus injection. The ileum was rapidly excised from the ileocecal valve to the most proximal gut segment. The tips of each segment were discarded. In order to assay caspases 3 and 7 activity and phospholipids peroxidation, mucosa samples were collected from gut segments immediately after hemorrhage and stored at −80° C. For permeability measurements, each segment was converted into an everted gut sac, as previously described by Wattanasirichaigoon et al., see Wattanasirichaigoon, S. et al., Effect of mesenteric ischemia and reperfusion or hemorrhagic shock on intestinal mucosal permeability and ATP content in rats, SHOCK, 12:127-133 (1999).
# Assay for peroxidation of phospholipids. Gut mucosal samples were homogenized. Lipids were extracted from homogenates using the Folch procedure, see M. Lees and G. H. Sloan-Stanley, A simple method for isolation and purification of total lipids from animal tissue, J. BIOL. CHEM. 226:497-509 (1957), and resolved by 2D HPTLC (High Performance Thin Layer Chromatography) as previously described, see Kagan, V. E. et al., A role for oxidative stress in apoptosis: Oxidation and externalization of phosphatidylserine is required for macrophage clearance of cell undergoing Fas-mediated apoptosis, J. IMMUMOL. 169:487-489 (2002). Spots of phospholipids were scraped from HPTLC plates and phospholipids were extracted from silica. Lipid phosphorus was determined by a micro-method, see Bottcher, C. J. F. et al., A rapid and sensitive sub-micro phosphorus determination, ANAL. CHIM. ACTA 24: 203-204 (1961).
# Oxidized phospholipids were hydrolyzed by pancreatic phospholipase A2 (2 U/μl) in 25 mM phosphate buffer containing 1 mM CaCl2, 0.5 mM EDTA and 0.5 mM sodium dodecyl sulfate (SDS) (pH 8.0, at room temperature for 30 min). Fatty acid hydroperoxides formed were determined by fluorescence HPLC of resorufin stoichiometrically formed during their microperoxidase 11-catalized reduction in presence of Amplex Red (for 40 min at 4° C.) (8). Fluorescence HPLC (ECLIPSE XDB-C18 column, 5 μm, 150×4.6 mm, mobile phase was composed of 25 mM disodium phosphate buffer (pH 7.0)/methanol (60:40 v/v); excitation wavelength 560 nm, emission wavelength 590 nm) was performed on a SHIMADZU LC-100AT HPLC system equipped with fluorescence detector (RF-10Ax1) and autosampler (SIL-10AD).
# In the subsequent series of in vivo studies, the affect of intraluminal XJB-5-131 on hemorrhage-induced peroxidation of phospholipids in intestinal mucosa was examined. […] In a preferred embodiment, 0.3 mL of test solution filled the lumen of each ileal compartment. […]
smiles,measurement,setting,value
CC(C)C[C@@H](/C=C/[C@H](Cc1ccccc1)C(=O)N1CCC[C@H]1C(=O)N[C@H](C(=O)N[C@@H](CCCNC(=O)OCc1ccccc1)C(=O)NC1CC(C)(C)N([O])C(C)(C)C1)C(C)C)NC(=O)OC(C)(C)C [XJB-5-131],rats surviving longer than 3 hours after completion of the hemorrhage protocol,[1]; 2 μmol/kg i.v.,Three of the six
same,survival versus vehicle-treated rats,"[1]; 2 μmol/kg i.v. infusion during last 20 min of hemorrhage, no resuscitation",survived significantly longer
same,rats surviving the whole 6 hour post-bleeding observation period,"[1]; 2 μmol/kg i.v., six rats",one
same,"beneficial dose, times smaller than the TEMPOL dose of previous studies",[1]; ~0.1 mg/kg versus TEMPOL 30 mg/kg bolus+30 mg/kg per h,about 300 fold
same,DNA fragmentation,"[2]; 10 μM, ActD 100 ng/mL",prevented DNA fragmentation
same,PS externalization (annexin V-positive cells),"[2]; 10 μM, ActD 100 ng/mL",reduced the number of annexin V-positive cells
same,caspase-3 activation,"[2]; 10 μM, ActD 100 ng/mL",prevented caspase-3 activation
same,anti-apoptotic protection / cytotoxicity at higher concentrations,[2]; concentrations in excess of 10 μM,either less protective or exhibited cytotoxicity
same,hemorrhage-induced peroxidation of cardiolipin (CL),[3],significantly ameliorated
same,peroxidation of phosphatidylcholine (PC),[3],no effect
same,peroxidation of phosphatidylethanolamine (PE),[3],small effect
same,peroxidation of phosphatidylserine (PS),[3],no effect

# — patent US9402839B2, “Selective targeting agents for mitochondria” (University of Pittsburgh—Of the Commonwealth System of …, priority 2006, dated 2016)
